Experiments:
Assay type in all cases: biochemical
adenosine A2A receptor = adenosine A2A receptor (Homo sapiens (Human), UniProt P29274); experiment: Adenosine receptor activity assay (Table 1), A2A activity; settings: read-out: Ave A2A cAMP IC50
adenosine A2B receptor = adenosine A2B receptor (Homo sapiens (Human), UniProt P29275); experiment: Adenosine receptor activity assay (Table 1), A2B activity; settings: for Ratio: A2A activity to the A2B activity, A2A/A2B; for IC50: read-out: Ave A2B cAMP IC50
adenosine A1 receptor = adenosine A1 receptor (Homo sapiens (Human), UniProt P30542); experiment: Adenosine receptor activity assay (Table 1), A1 cAMP
Description: (§1) Table 1. Compounds (e.g., Adenosine Receptor modulators) and activity assay results. The legend is as follows: A=<10 nM; B=10-50 nM; C=50-100 nM; D=100-500; and E=>500 nM. The ratio corresponds to the A2A activity to the A2B activity; or A2A/A2B.

adenosine A3 receptor = adenosine A3 receptor (Homo sapiens (Human), UniProt P0DMS8); experiment: Adenosine receptor activity assay (Table 1), A3 cAMP
Description: as §1

adenosine A2B receptor, sequence (P29275 whole entry): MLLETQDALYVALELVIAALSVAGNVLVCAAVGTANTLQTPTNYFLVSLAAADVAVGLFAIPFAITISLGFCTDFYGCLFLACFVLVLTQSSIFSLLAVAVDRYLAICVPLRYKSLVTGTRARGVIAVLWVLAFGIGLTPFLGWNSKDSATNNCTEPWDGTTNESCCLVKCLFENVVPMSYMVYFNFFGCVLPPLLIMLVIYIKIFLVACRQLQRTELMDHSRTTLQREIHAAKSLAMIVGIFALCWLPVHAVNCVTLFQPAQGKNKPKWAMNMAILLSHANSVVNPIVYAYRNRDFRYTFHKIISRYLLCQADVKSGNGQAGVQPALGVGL
adenosine A3 receptor, sequence (P0DMS8 whole entry): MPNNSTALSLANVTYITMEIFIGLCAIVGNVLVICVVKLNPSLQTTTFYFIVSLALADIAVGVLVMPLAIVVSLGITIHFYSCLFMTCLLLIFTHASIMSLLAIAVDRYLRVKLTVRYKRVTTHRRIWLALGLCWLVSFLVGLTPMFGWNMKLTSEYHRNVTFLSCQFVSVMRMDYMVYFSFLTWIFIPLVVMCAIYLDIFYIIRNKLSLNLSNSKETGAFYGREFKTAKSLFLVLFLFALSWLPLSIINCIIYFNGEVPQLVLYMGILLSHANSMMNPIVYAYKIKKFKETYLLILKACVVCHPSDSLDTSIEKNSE
adenosine A1 receptor, sequence (P30542 whole entry): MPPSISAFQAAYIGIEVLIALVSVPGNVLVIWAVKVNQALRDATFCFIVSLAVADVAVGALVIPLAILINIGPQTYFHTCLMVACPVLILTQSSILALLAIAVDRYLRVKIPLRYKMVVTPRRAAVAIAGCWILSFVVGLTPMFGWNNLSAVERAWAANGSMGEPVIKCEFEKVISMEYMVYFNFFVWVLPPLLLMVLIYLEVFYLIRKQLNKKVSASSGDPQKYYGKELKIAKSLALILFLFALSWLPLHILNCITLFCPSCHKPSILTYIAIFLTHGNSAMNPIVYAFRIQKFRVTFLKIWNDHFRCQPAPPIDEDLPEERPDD
adenosine A2A receptor, sequence (P29274 whole entry): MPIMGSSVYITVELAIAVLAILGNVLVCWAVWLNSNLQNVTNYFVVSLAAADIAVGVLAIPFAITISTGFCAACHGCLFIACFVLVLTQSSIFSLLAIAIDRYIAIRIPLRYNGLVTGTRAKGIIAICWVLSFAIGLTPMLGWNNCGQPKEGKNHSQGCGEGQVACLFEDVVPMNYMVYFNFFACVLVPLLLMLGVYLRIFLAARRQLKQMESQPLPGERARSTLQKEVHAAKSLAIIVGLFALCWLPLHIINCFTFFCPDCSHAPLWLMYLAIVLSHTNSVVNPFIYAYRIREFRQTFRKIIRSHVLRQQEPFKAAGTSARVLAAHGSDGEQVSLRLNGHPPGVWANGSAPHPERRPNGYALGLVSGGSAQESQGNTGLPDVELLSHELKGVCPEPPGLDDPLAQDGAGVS

Compound	IC50 (adenosine A2A receptor) [nM]	Ratio (adenosine A2B receptor)	IC50 (adenosine A2B receptor) [nM]	IC50 (adenosine A1 receptor) [nM]	IC50 (adenosine A3 receptor) [nM]
Cc1cc2nc(N[C@@H](C)c3cncc(F)c3)nc(C(=O)N3CC(N4CCCC4)C3)c2s1 [Example Z540, (S)-(2-((1-(5-Fluoropyridin-3-yl)ethyl)amino)-6-methylthieno[3,2-d]pyrimidin-4-yl)(3-(pyrrolidin-1-yl)azetidin-1-yl)methanone]	100 to 500	33.20	10 to 50	> 500	> 500
Cc1cc2nc(N[C@@H](C)c3cncc(F)c3)nc(C(=O)N3CC(NC(=O)C4CCCO4)C3)c2s1 (stereo partly drawn) [Example Z541, N-(1-(2-(((S)-1-(5-Fluoropyridin-3-yl)ethyl)amino)-6-methylthieno[3,2-d]pyrimidine-4-carbonyl)azetidin-3-yl)tetrahydrofuran-2-carboxamide]	10 to 50	1.64	10 to 50	100 to 500	100 to 500
Cc1cc2nc(N[C@@H](C)c3cncc(F)c3)nc(C(=O)N3CC(NC(=O)C4CCC4)C3)c2s1 [Example Z542, (S)—N-(1-(2-((1-(5-Fluoropyridin-3-yl)ethyl)amino)-6-methylthieno[3,2-d]pyrimidine-4-carbonyl)azetidin-3-yl)cyclobutanecarboxamide]	10 to 50	1.45	10 to 50	> 500	50 to 100
CC(=O)NC1CN(C(=O)c2nc(N[C@@H](C)c3cncc(F)c3)nc3cc(C)sc23)C1 [Example Z543, (S)—N-(1-(2-((1-(5-Fluoropyridin-3-yl)ethyl)amino)-6-methylthieno[3,2-d]pyrimidine-4-carbonyl)azetidin-3-yl)acetamide]	100 to 500	18.71	–	> 500	> 500
Cc1cc2nc(N[C@@H](C)c3cncc(F)c3)nc(C(=O)N3CC(NC(=O)c4ccoc4)C3)c2s1 [Example Z546, (S)—N-(1-(2-((1-(5-Fluoropyridin-3-yl)ethyl)amino)-6-methylthieno[3,2-d]pyrimidine-4-carbonyl)azetidin-3-yl)furan-3-carboxamide]	10 to 50	3.52	< 10	> 500	> 500
C[C@H](Nc1nc(C(=O)N2CCC(C(=O)NOC(C)(C)C)C2)c2sccc2n1)c1cncc(F)c1 (stereo partly drawn) [Example Z549, N-(tert-Butoxy)-1-(2-(((S)-1-(5-fluoropyridin-3-yl)ethyl)amino)thieno[3,2-d]pyrimidine-4-carbonyl)pyrrolidine-3-carboxamide]	< 10	0.63	10 to 50	> 500	> 500
C[C@H](Nc1nc(C(=O)N2CC(CN(C)C(=O)C(C)(C)C)C2)c2sccc2n1)c1cncc(F)c1 [Example Z551, (S)—N-((1-(2-((1-(5-Fluoropyridin-3-yl)ethyl)amino)thieno[3,2-d]pyrimidine-4-carbonyl)azetidin-3-yl)methyl)-N-methylpivalamide]	10 to 50	1.68	10 to 50	> 500	> 500
Cc1cc2nc(N[C@@H](C)c3ccccn3)nc(C(=O)N3CC(C(=O)OC(C)(C)C)C3)c2s1 [Example Z552, tert-Butyl (S)-1-(6-methyl-2-((1-(pyridin-2-yl)ethyl)amino)thieno[3,2-d]pyrimidine-4-carbonyl)azetidine-3-carboxylate]	10 to 50	2.32	10 to 50	> 500	100 to 500
COCC1CN(C(=O)c2nc(N[C@@H](C)c3ccccn3)nc3c(C)csc23)C1 [Example Z553, (S)-(3-(methoxymethyl)azetidin-1-yl)(7-methyl-2-((1-(pyridin-2-yl)ethyl)amino)thieno[3,2-d]pyrimidin-4-yl)methanone]	10 to 50	3.87	< 10	> 500	100 to 500

Reference: patent US11254686B1 (Corvus Pharmaceuticals, Inc., priority 2017, dated 2022)
